The nature of data set [1]: in vitro. The conditions noted are these: human, Caco-2.
A short description of data set [2]: in vitro. As to conditions: human, Caco-2. This is another data set of the same source.
Data set [3] in a line: in vitro. The conditions noted are these: human, Caco-2. This is another data set of the same source.
Data set [4] is described as follows: in vitro. The conditions noted are these: human, Caco-2. This is another data set of the same source.
Data set [5] is described as follows: Tmax in Sprague-Dawley rat at 5 mg/kg, po by LC-MS/MS method. The format is ADME, organism-based. Also noted: dose 5 mg/kg, route oral. The conditions noted are these: in vivo.
The test system of data set [6] is Rattus norvegicus. The data set is described as follows: Tmax in Sprague-Dawley rat assessed as 3-(2,5-Dichloro-4-((3-(4-cyclopropyl-1,2,3,4-tetrahydroquinoxaline-1-carbonyl)pyridin-4-yl)oxy)phenyl)propanoic acid level at 5 mg/kg, po by LC-MS/MS method. In kind it is ADME, organism-based. Also noted: dose 5 mg/kg, route oral. As to conditions: in vivo.
The nature of data set [7]: Cmax in Sprague-Dawley rat at 5 mg/kg, po by LC-MS/MS method. The conditions noted are these: in vivo. In kind it is ADME, organism-based. On the set-up: dose 5 mg/kg, route oral.
Data set [8] relates to Rattus norvegicus. The data set is described as follows: Cmax in Sprague-Dawley rat assessed as 3-(2,5-Dichloro-4-((3-(4-cyclopropyl-1,2,3,4-tetrahydroquinoxaline-1-carbonyl)pyridin-4-yl)oxy)phenyl)propanoic acid level at 5 mg/kg, po by LC-MS/MS method. Also noted: dose 5 mg/kg, route oral. As to conditions: in vivo. In kind it is ADME, organism-based.
Data set [9] in a line: AUC (0 to t) in Sprague-Dawley rat at 5 mg/kg, po by LC-MS/MS method. In kind it is ADME, organism-based. Also noted: dose 5 mg/kg, route oral. As to conditions: plasma.
Data set [10] relates to Rattus norvegicus. Kind of data set: AUC (0 to t) in Sprague-Dawley rat assessed as 3-(2,5-Dichloro-4-((3-(4-cyclopropyl-1,2,3,4-tetrahydroquinoxaline-1-carbonyl)pyridin-4-yl)oxy)phenyl)propanoic acid level at 5 mg/kg, po by LC-MS/MS method. In kind it is ADME, organism-based, Plasma. As to conditions: in vivo. On the set-up: dose 5 mg/kg, route oral.
Data set [11] is described as follows: AUC (0 to infinity) in Sprague-Dawley rat at 5 mg/kg, po by LC-MS/MS method. The format is ADME, organism-based. Also noted: time infinity, dose 5 mg/kg, route oral. The conditions noted are these: plasma.
The test system of data set [12] is Rattus norvegicus. The data set is described as follows: AUC (0 to infinity) in Sprague-Dawley rat assessed as 3-(2,5-Dichloro-4-((3-(4-cyclopropyl-1,2,3,4-tetrahydroquinoxaline-1-carbonyl)pyridin-4-yl)oxy)phenyl)propanoic acid level at 5 mg/kg, po by LC-MS/MS method. The format is ADME, organism-based, Plasma. On the set-up: time infinity, dose 5 mg/kg, route oral. As to conditions: in vivo.

A short description of data set [13]: Mean residence time in Sprague-Dawley rat at 5 mg/kg, po by LC-MS/MS method. In kind it is ADME, organism-based. On the set-up: dose 5 mg/kg, route oral. As to conditions: in vivo.
In data set [14] the test system is Rattus norvegicus. The data set is described as follows: Mean residence time in Sprague-Dawley rat assessed as 3-(2,5-Dichloro-4-((3-(4-cyclopropyl-1,2,3,4-tetrahydroquinoxaline-1-carbonyl)pyridin-4-yl)oxy)phenyl)propanoic acid level at 5 mg/kg, po by LC-MS/MS method. The format is ADME, organism-based. Also noted: dose 5 mg/kg, route oral. The conditions noted are these: in vivo.

Data set [15] in a line: Half life in Sprague-Dawley rat at 5 mg/kg, po by LC-MS/MS method. Also noted: dose 5 mg/kg, route oral. The conditions noted are these: in vivo. The format is ADME, organism-based.
In data set [16] the test system is Rattus norvegicus. The data set is described as follows: Half life in Sprague-Dawley rat assessed as 3-(2,5-Dichloro-4-((3-(4-cyclopropyl-1,2,3,4-tetrahydroquinoxaline-1-carbonyl)pyridin-4-yl)oxy)phenyl)propanoic acid level at 5 mg/kg, po by LC-MS/MS method. On the set-up: dose 5 mg/kg, route oral. In kind it is ADME, organism-based. The conditions noted are these: in vivo.

Data set [17] deals with Rattus norvegicus. The data set is described as follows: Drug level in Sprague-Dawley rat at 20 mg/kg, po after 15 mins to 24 hrs by LC-MS/MS method. In kind it is ADME, organism-based. Also noted: dose 20 mg/kg, route oral. The conditions noted are these: in vivo.
The test system of data set [18] is Rattus norvegicus. The data set is described as follows: Drug metabolism in Sprague-Dawley rat assessed as 3-(2,5-Dichloro-4-((3-(4-cyclopropyl-1,2,3,4-tetrahydroquinoxaline-1-carbonyl)pyridin-4-yl)oxy)phenyl)propanoic acid level at 20 mg/kg, po after 15 mins to 24 hrs by LC-MS/MS method. On the set-up: dose 20 mg/kg, route oral. As to conditions: in vivo. In kind it is ADME, organism-based.

A short description of data set [19]: Drug level in ICR mouse gall bladder at 150 mg/kg, po after 4 hrs by LC-MS/MS method. In kind it is ADME, organism-based. On the set-up: dose 150 mg/kg, route oral. The conditions noted are these: in vivo.
Data set [20] is described as follows: Drug metabolism in ICR mouse gall bladder assessed as 3-(2,5-Dichloro-4-((3-(4-cyclopropyl-1,2,3,4-tetrahydroquinoxaline-1-carbonyl)pyridin-4-yl)oxy)phenyl)propanoic acid level at 150 mg/kg, po after 4 hrs by LC-MS/MS method. In kind it is ADME, organism-based. Also noted: dose 150 mg/kg, route oral. The conditions noted are these: in vivo.
A short description of data set [21]: Drug level in ICR mouse plasma at 150 mg/kg, po after 2 hrs by LC-MS/MS method. The format is ADME, organism-based. On the set-up: dose 150 mg/kg, route oral.
Data set [22] is described as follows: Drug level in ICR mouse plasma at 150 mg/kg, po after 2.5 hrs by LC-MS/MS method. The format is ADME, organism-based. On the set-up: dose 150 mg/kg, route oral.
A short description of data set [23]: Drug level in ICR mouse plasma at 150 mg/kg, po after 3.5 hrs by LC-MS/MS method. On the set-up: dose 150 mg/kg, route oral. In kind it is ADME, organism-based.
The nature of data set [24]: Drug level in ICR mouse bile at 150 mg/kg, po after 2 hrs by LC-MS/MS method. The conditions noted are these: read-out: Drug uptake. The format is ADME, organism-based. On the set-up: dose 150 mg/kg, route oral.
A short description of data set [25]: Drug level in ICR mouse bile at 150 mg/kg, po after 2.5 hrs by LC-MS/MS method. The format is ADME, organism-based. On the set-up: dose 150 mg/kg, route oral. As to conditions: read-out: Drug uptake.
Data set [26] can be described thus: Drug level in ICR mouse bile at 150 mg/kg, po after 3.5 hrs by LC-MS/MS method. Also noted: dose 150 mg/kg, route oral. As to conditions: read-out: Drug uptake. In kind it is ADME, organism-based.
Data set [27] is described as follows: Drug level in ICR mouse gall bladder at 150 mg/kg, po after 2 hrs by LC-MS/MS method. In kind it is ADME, organism-based. Also noted: dose 150 mg/kg, route oral. The conditions noted are these: in vivo.
Data set [28] is described as follows: Drug level in ICR mouse gall bladder at 150 mg/kg, po after 2.5 hrs by LC-MS/MS method. The format is ADME, organism-based. Also noted: dose 150 mg/kg, route oral. The conditions noted are these: in vivo.
Data set [29] in a line: Drug level in ICR mouse gall bladder at 150 mg/kg, po after 3.5 hrs by LC-MS/MS method. As to conditions: in vivo. Also noted: dose 150 mg/kg, route oral. The format is ADME, organism-based.

These results are taken from ChEMBL document CHEMBL3421628, “Discovery of Intestinal Targeted TGR5 Agonists for the Treatment of Type 2 Diabetes” (J Med Chem, 2015).

SMILES strings stand for the structures.

`O=C(c1cnccc1Oc1cc(Cl)ccc1Cl)N1CCN(C2CC2)c2ccccc21` displayed a Papp A→B at 20 µM in the data set “in vitro [1]” of 6.75 ×10⁻⁶ cm/s. Further, the recovery at 20 µM was 46.8% in “in vitro [2]” and 69.4% in “in vitro [4]”. In “in vitro [3]”, the Papp B→A at 20 µM came out at 5.58 ×10⁻⁶ cm/s.
Consider `O=C(O)CNC(=O)CCc1cc(Cl)c(Oc2ccncc2C(=O)N2CCN(C3CC3)c3ccccc32)cc1Cl`, for which the Tmax came out at 0.44 h in data set [5] and 3.5 h in the data set with Rattus norvegicus [6]. The Cmax amounted to 13.5 ng/mL in [7] and 15.5 ng/mL in the data set with Rattus norvegicus [8]. The same compound gave an AUC(0-t) in data set [9] of 23.9 ng·h/mL. In addition, the AUCt in the data set on Rattus norvegicus [10] came to 84.9 ng·h/mL. For the same compound, in [11], the AUC(0-inf) was found to be 39.7 ng·h/mL. Further, the AUC in the data set with Rattus norvegicus [12] is 241 ng·h/mL. In addition, the MRT in data set [13] is 2.37 h; with Rattus norvegicus [14] it was 5.47 h. The half-life in data set [15] was 1.56 h. In the data set on Rattus norvegicus [16], the t1/2 worked out at 1.77 h.
As for `O=C(CCc1cc(Cl)c(Oc2ccncc2C(=O)N2CCN(C3CC3)c3ccccc32)cc1Cl)NCCOCCOCCOCCOCCOCCOCCOCCOCCNC(=O)CCc1cc(Cl)c(Oc2ccncc2C(=O)N2CCN(C3CC3)c3ccccc32)cc1Cl`, the Drug uptake with Rattus norvegicus [17] was under 3 ng/mL; in [19] it was under 3 ng; in data set [27], “Not Active”; in data set [28] it was “Not Active”; in data set [29] it was “Not Active”. Also, the Drug metabolism result (with Rattus norvegicus [18]; in data set [20]) was “metabolite_notdetected” throughout. Further, the results for the concentration at 2 h in data set [21] and in data set [24] were 4.4 nM and 3.6 nM, respectively. Moreover, the figures for the concentration at 2.5 h in [22] and in [25] were 6.9 nM and 3.5 nM, respectively. Moreover, the results for the concentration at 3.5 h in data set [23] and in data set [26] were 2.9 nM and 3.8 nM, respectively. This compound yielded a Papp A→B at 20 µM in the data set “in vitro [1]” of 0.04 ×10⁻⁶ cm/s. In addition, the recovery at 20 µM was 99.5% in the data set “in vitro [2]” and 91.2% in “in vitro [4]”. Moreover, the Papp B→A at 20 µM in “in vitro [3]” came out at 2.24 ×10⁻⁶ cm/s.
Consider `C[C@H]1O[C@@H](O[C@H]2[C@@H](O)C[C@H](O[C@H]3[C@@H](O)C[C@H](O[C@H]4CC[C@@]5(C)[C@H](CC[C@@H]6[C@@H]5C[C@@H](O)[C@]5(C)[C@@H](C7=CC(=O)OC7)CC[C@]65O)C4)O[C@@H]3C)O[C@@H]2C)C[C@H](O)[C@@H]1O` [DIGOXIN], for which the Papp A→B at 20 µM in the data set “in vitro [1]” stood at 0.1 ×10⁻⁶ cm/s. Moreover, the recovery at 20 µM in the data set “in vitro [2]” was 101%; in the data set “in vitro [4]” it was 95.8%. The same compound had a Papp B→A at 20 µM in the data set “in vitro [3]” of 15.8 ×10⁻⁶ cm/s.

In general, Papp A→B refers to the apparent permeability from the apical to the basolateral side of a cell layer. One may read the Papp B→A as how fast a substance crosses the layer from the basolateral side. One may read the Tmax as the time at which the peak concentration occurs. As a reminder, the Cmax is the maximum level reached in the sampled fluid or tissue. What is called AUC(0-t) is the area under the concentration-time curve up to a stated or last time point. For orientation: AUC(0-inf) means the area under the concentration-time curve extrapolated to infinity. A high value points to high exposure. The AUC is the area under the concentration-time curve, a measure of exposure. A word on the MRT: it is a mean duration of stay, worked out from the concentration-time curve. The half-life is the time needed for the level to fall by half in the phase considered. A low value points to fast loss.
